In test [1] the target is T1, CB1 receptor (Homo sapiens, UniProt P21554).
T1 construct: expressed in transfected cells
Description: cell-based. The conditions noted are these: CB1 Receptor Functional Inverse Agonist EC50, forskolin induced β-galactosidase activity, SK-N-MC cells. In short, it runs like this: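 Read-out is forskolin-driven CRE-β-gal reporter activity in stably transfected human-CB1 SK-N-MC cells, normalised to vehicle (100%); agonism lowers, inverse agonism raises signal. Values are EC50 (linear regression, multiple concentrations) or % change at one concentration.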

Test [2] addresses T1, CB1 receptor. Briefly: Binding assay for CB1 agonists or inverse agonists (SK-N-MC membranes, [3H]-CP-55,940). The conditions noted are these: for IC50: Cannabinoid CB1 Receptor Binding IC50, calculated by linear regression from percent inhibition at various test concentrations; for inhibition at 0.2 µM: read-out: CB1 receptor binding percent inhibition, test concentration 0.2 μM (footnote 2). The essentials: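 Radioligand displacement: [3H]-CP-55,940 at […], 90 min at 30° C, pH 7.5 Tris buffer with 0.5 mg/mL fatty-acid-free BSA, using semi-purified membranes of human-CB1-transfected SK-N-MC cells. Bound counts collected on GF/C filters, 10 uM WIN 55,212 for non-specific; IC50 from percent inhibition over several concentrations.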

The target in another test is T2, CB2 receptor (Homo sapiens, UniProt P34972).
T2 construct: expressed in transfected cells
T2 sequence (P34972 whole entry): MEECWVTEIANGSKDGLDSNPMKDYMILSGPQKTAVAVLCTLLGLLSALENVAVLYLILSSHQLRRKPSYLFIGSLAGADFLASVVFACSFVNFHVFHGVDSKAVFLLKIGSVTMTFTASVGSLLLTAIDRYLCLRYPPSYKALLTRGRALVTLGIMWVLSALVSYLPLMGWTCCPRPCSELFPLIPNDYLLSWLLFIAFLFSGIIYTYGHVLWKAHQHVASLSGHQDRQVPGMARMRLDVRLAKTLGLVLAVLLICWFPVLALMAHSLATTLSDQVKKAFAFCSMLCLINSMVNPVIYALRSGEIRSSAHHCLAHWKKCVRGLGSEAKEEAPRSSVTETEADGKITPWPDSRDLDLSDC
Description: Binding assay for CB2 agonists or inverse agonists (SK-N-MC membranes, [3H]-CP-55,940). The conditions noted are these: read-out: CB2 receptor binding percent inhibition, test concentration 0.2 μM (footnote 2). The essentials:
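IC50 came from percent-inhibition data over several compound concentrations, fitted by linear regression. Binding used semi-purified membranes of human CB2-transfected SK-N-MC cells, 90 min at 30 °C, pH 7.5 Tris-HCl with MgCl2, EDTA and BSA, then filtration and scintillation counting.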

T1 sequence (P21554 whole entry): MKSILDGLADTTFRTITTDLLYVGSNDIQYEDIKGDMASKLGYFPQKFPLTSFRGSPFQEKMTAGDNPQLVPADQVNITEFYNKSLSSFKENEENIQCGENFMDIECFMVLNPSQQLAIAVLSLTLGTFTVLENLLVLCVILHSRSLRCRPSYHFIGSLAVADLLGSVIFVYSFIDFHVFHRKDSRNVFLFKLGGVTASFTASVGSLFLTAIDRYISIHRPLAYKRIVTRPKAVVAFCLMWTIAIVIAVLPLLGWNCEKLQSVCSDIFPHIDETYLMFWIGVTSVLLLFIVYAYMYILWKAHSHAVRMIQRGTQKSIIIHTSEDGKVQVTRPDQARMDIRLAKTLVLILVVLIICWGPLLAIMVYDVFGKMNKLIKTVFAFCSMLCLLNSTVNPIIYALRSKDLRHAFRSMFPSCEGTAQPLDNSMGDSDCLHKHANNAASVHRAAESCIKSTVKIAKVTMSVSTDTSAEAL

The term EC50 denotes the concentration giving half of the maximal effect. High values mean a less potent agent, low ones a more potent agent. Usually IC50 stands for the point on the concentration scale where inhibition reaches its midpoint. As for `C[C@@H](NC(=O)c1nn(-c2ccccc2Cl)c2c1CCCC/C2=C\c1ccc(Cl)cc1)c1ccccc1` [Cpd 190, (8E)-8-(4-chloro-benzylidene)-1-(2-chloro-phenyl)-1,4,5,6,7,8-hexahydro-cycloheptapyrazole-3-carboxylic acid [(1R)-1-phenyl-ethyl]-amide], at CB1 receptor [1], the EC50 was found to be 9 nM. At CB1 receptor [2], the IC50 was 80 nM and the inhibition at 0.2 µM came out at 76%. Moreover, the inhibition at 0.2 µM at CB2 receptor was found to be 12%.
As for `C[C@H](NC(=O)c1nn(-c2cc(Cl)ccc2Cl)c2c1CCCC/C2=C\c1ccc(Cl)cc1)C1CCCCC1` [Cpd 197, (8E)-8-(4-chloro-benzylidene)-1-(2,5-dichloro-phenyl)-1,4,5,6,7,8-hexahydro-cycloheptapyrazole-3-carboxylic acid [(1S)-1-cyclohexyl-ethyl]-amide], the EC50 on CB1 receptor [1] turned out to be 3 nM. At CB1 receptor [2], the 50% inhibitory concentration (IC50) was 30 nM and the inhibition at 0.2 µM stood at 83%. The inhibition at 0.2 µM on CB2 receptor is 67%.
On the same counts, the results for `CC[C@@H](NC(=O)c1nn(-c2ccc(Cl)cc2Cl)c2c1CCCC/C2=C\c1ccc(F)cc1)c1ccccc1` [Cpd 202, (8E)-1-(2,4-dichloro-phenyl)-8-(4-fluoro-benzylidene)-1,4,5,6,7,8-hexahydro-cycloheptapyrazole-3-carboxylic acid [(1R)-1-phenyl-propyl]-amide] are 9 nM, 10 nM, 91% and 9%.
Taken in the same sequence, the figures for `O=C(N[C@H](CO)c1ccccc1)c1nn(-c2ccc(Cl)cc2Cl)c2c1CCCC/C2=C\c1ccc(F)cc1` [Cpd 204, (8E)-1-(2,4-dichloro-phenyl)-8-(4-fluoro-benzylidene)-1,4,5,6,7,8-hexahydro-cycloheptapyrazole-3-carboxylic acid [(1S)-2-hydroxy-1-phenyl-ethyl]-amide] were 3 nM, 30 nM, 88% and 34%.
Regarding `CC(C)(NC(=O)c1nn(-c2ccc(Cl)cc2Cl)c2c1CCCC/C2=C\c1ccc(F)cc1)c1ccccc1` [Cpd 205, (8E)-1-(2,4-dichloro-phenyl)-8-(4-fluoro-benzylidene)-1,4,5,6,7,8-hexahydro-cycloheptapyrazole-3-carboxylic acid (1-methyl-1-phenyl-ethyl)-amide], the EC50 on CB1 receptor [1] is 9 nM. Moreover, on CB1 receptor [2], the IC50 is 20 nM and the inhibition at 0.2 µM was determined as 93%. Moreover, on CB2 receptor, the inhibition at 0.2 µM is 27%.
`O=C(c1nn(-c2ccc(Cl)cc2Cl)c2c1CCCC/C2=C\c1ccc(F)cc1)N1CCCCC1c1ccccn1` (stereo not drawn) [Cpd 206, (8E)-[1-(2,4-dichloro-phenyl)-8-(4-fluoro-benzylidene)-1,4,5,6,7,8-hexahydro-cycloheptapyrazol-3-yl]-(3,4,5,6-tetrahydro-2H-[2,2′]bipyridinyl-1-yl)-methanone]: on CB1 receptor [1], the EC50 was 10 nM. Besides, at CB1 receptor [2], the IC50 is 80 nM and the inhibition at 0.2 µM turned out to be 73%. The inhibition at 0.2 µM on CB2 receptor turned out to be 22%.
Taken in the same sequence, the figures for `O=C(N[C@@H]1CCc2ccccc21)c1nn(-c2ccc(Cl)cc2Cl)c2c1CCCC/C2=C\c1ccc(F)cc1` [Cpd 207, (8E)-1-(2,4-dichloro-phenyl)-8-(4-fluoro-benzylidene)-1,4,5,6,7,8-hexahydro-cycloheptapyrazole-3-carboxylic acid (1R)-indan-1-ylamide] were 7 nM, 20 nM, 90% and 1%.
Taken in the same sequence, the figures for `O=C(N[C@H]1c2ccccc2C[C@H]1O)c1nn(-c2ccc(Cl)cc2Cl)c2c1CCCC/C2=C\c1ccc(F)cc1` [Cpd 208, (8E)-1-(2,4-dichloro-phenyl)-8-(4-fluoro-benzylidene)-1,4,5,6,7,8-hexahydro-cycloheptapyrazole-3-carboxylic acid [(1S,2R)-2-hydroxy-indan-1-yl]-amide] were 10 nM, 70 nM, 76% and 31%.
On the same counts, the results for `O=C(NC1CCCc2ccccc21)c1nn(-c2ccc(Cl)cc2Cl)c2c1CCCC/C2=C\c1ccc(F)cc1` (stereo not drawn) [Cpd 209, (8E)-1-(2,4-dichloro-phenyl)-8-(4-fluoro-benzylidene)-1,4,5,6,7,8-hexahydro-cycloheptapyrazole-3-carboxylic acid (1,2,3,4-tetrahydro-naphthalen-1-yl)-amide] are 10 nM, 30 nM, 88% and 8%.
For the molecule `COc1ccc(/C=C2\CCCCc3c(C(=O)NCc4ccccn4)nn(-c4ccc(Cl)cc4Cl)c32)cc1` [Cpd 210, (8E)-1-(2,4-dichloro-phenyl)-8-(4-methoxy-benzylidene)-1,4,5,6,7,8-hexahydro-cycloheptapyrazole-3-carboxylic acid (pyridin-2-ylmethyl)-amide], at CB1 receptor [1], the EC50 was found to be 20 nM. Further, on CB1 receptor [2], the IC50 is 40 nM and the inhibition at 0.2 µM is 76%. In addition, the inhibition at 0.2 µM at CB2 receptor turned out to be 49%.
In the case of `COc1ccc(/C=C2\CCCCc3c(C(=O)NC(C)(C)c4ccccc4)nn(-c4ccc(Cl)cc4Cl)c32)cc1` [Cpd 211, (8E)-1-(2,4-dichloro-phenyl)-8-(4-methoxy-benzylidene)-1,4,5,6,7,8-hexahydro-cycloheptapyrazole-3-carboxylic acid (1-methyl-1-phenyl-ethyl)-amide], the EC50 on CB1 receptor [1] amounted to 20 nM. For the same molecule, on CB1 receptor [2], the IC50 was 7 nM and the inhibition at 0.2 µM was determined as 92%. Besides, the inhibition at 0.2 µM at CB2 receptor turned out to be 37%.
The molecule `COc1ccc(/C=C2\CCCCc3c(C(=O)N[C@H](C)c4ccccc4)nn(-c4ccc(Cl)cc4Cl)c32)cc1` [Cpd 212, (8E)-1-(2,4-dichloro-phenyl)-8-(4-methoxy-benzylidene)-1,4,5,6,7,8-hexahydro-cycloheptapyrazole-3-carboxylic acid [(1R)-1-phenyl-ethyl]-amide] came in with an EC50 at CB1 receptor [1] of 20 nM. Further, the IC50 on CB1 receptor [2] was 6 nM. Besides, the inhibition at 0.2 µM is 94% on CB1 receptor [2] and 42% on CB2 receptor.
On the same counts, the results for `COc1ccc(/C=C2\CCCCc3c(C(=O)N[C@@H](C)c4ccccc4)nn(-c4ccc(Cl)cc4Cl)c32)cc1` [Cpd 213, (8E)-1-(2,4-dichloro-phenyl)-8-(4-methoxy-benzylidene)-1,4,5,6,7,8-hexahydro-cycloheptapyrazole-3-carboxylic acid [(1S)-1-phenyl-ethyl]-amide] are 10 nM, 60 nM, 71% and 19%.
In the case of `COc1ccc(/C=C2\CCCCc3c(C(=O)N[C@H](C)C4CCCCC4)nn(-c4ccc(Cl)cc4Cl)c32)cc1` [Cpd 214, (8E)-1-(2,4-dichloro-phenyl)-8-(4-methoxy-benzylidene)-1,4,5,6,7,8-hexahydro-cycloheptapyrazole-3-carboxylic acid [(1R)-1-cyclohexyl-ethyl]-amide], at CB1 receptor [1], a half-maximal response (EC50) required 30 nM. Moreover, on CB1 receptor [2], the IC50 is 7 nM and the inhibition at 0.2 µM is 95%. Besides, the inhibition at 0.2 µM at CB2 receptor was 43%.
On the same counts, the results for `COc1ccc(/C=C2\CCCCc3c(C(=O)N[C@H](CO)c4ccccc4)nn(-c4ccc(Cl)cc4Cl)c32)cc1` [Cpd 215, (8E)-1-(2,4-dichloro-phenyl)-8-(4-methoxy-benzylidene)-1,4,5,6,7,8-hexahydro-cycloheptapyrazole-3-carboxylic acid [(1S)-2-hydroxy-1-phenyl-ethyl]-amide] are 10 nM, 10 nM, 88% and 24%.
Molecule `COc1ccc(/C=C2\CCCCc3c(C(=O)N[C@@H]4CCc5ccccc54)nn(-c4ccc(Cl)cc4Cl)c32)cc1` [Cpd 216, (8E)-1-(2,4-dichloro-phenyl)-8-(4-methoxy-benzylidene)-1,4,5,6,7,8-hexahydro-cycloheptapyrazole-3-carboxylic acid (1R)-indan-1-ylamide] returned an EC50 at CB1 receptor [1] of 50 nM. Besides, at CB1 receptor [2], the IC50 was 9 nM and the inhibition at 0.2 µM was found to be 91%. Further, on CB2 receptor, the inhibition at 0.2 µM came to 33%.
Taken in the same sequence, the figures for `COc1ccc(/C=C2\CCCCc3c(C(=O)NN4CCCCC4)nn(-c4ccc(Cl)cc4Cl)c32)cc1` [Cpd 217, (8E)-1-(2,4-dichloro-phenyl)-8-(4-methoxy-benzylidene)-1,4,5,6,7,8-hexahydro-cycloheptapyrazole-3-carboxylic acid piperidin-1-ylamide] were 20 nM, 60 nM, 75% and 52%.
On the same counts, the results for `COc1ccc(/C=C2\CCCCc3c(C(=O)NC(C)c4ccccn4)nn(-c4ccc(Cl)cc4Cl)c32)cc1` (stereo not drawn) [Cpd 222, (8E)-1-(2,4-dichloro-phenyl)-8-(4-methoxy-benzylidene)-1,4,5,6,7,8-hexahydro-cycloheptapyrazole-3-carboxylic acid (1-pyridin-2-yl-ethyl)-amide] are 30 nM, 30 nM, 48% and 41%.

(Values after patent publication US8378117B2 (priority 2005, dated 2013).)
